Experimental data taken from ChEMBL document CHEMBL1148690, “Binding of ring-substituted indole-3-acetic acids to human serum albumin” (Bioorg Med Chem, 2007).

How the values were obtained:
[1] = Octanol-water partition coefficient, log Kow of the compound
Albumin = Albumin (Homo sapiens, UniProt P02768); assay: Binding affinity to human serum albumin; settings: isolated protein
Sequence of Albumin (P02768 whole entry): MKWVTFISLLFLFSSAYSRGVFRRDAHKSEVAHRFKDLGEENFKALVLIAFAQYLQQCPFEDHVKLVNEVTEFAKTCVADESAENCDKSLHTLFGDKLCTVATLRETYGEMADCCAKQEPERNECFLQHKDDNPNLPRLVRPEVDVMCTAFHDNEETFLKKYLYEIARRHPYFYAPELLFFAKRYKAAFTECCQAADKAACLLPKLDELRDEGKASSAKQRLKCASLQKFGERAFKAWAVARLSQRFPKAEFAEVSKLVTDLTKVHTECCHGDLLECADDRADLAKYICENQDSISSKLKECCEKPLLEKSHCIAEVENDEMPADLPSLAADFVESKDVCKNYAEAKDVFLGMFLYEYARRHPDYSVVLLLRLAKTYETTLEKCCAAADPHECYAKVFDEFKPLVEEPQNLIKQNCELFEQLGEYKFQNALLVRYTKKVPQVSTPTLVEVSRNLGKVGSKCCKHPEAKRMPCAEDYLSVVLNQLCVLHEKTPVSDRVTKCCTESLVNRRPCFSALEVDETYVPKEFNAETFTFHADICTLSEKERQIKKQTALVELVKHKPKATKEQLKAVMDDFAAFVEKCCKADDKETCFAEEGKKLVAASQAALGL

SMILES	logP [1]	logKA (Albumin)
O=C(O)Cc1c[nH]c2c(Cl)cc(Cl)cc12	3.42	0.983
O=C(O)Cc1c[nH]c2cc(Cl)c(Cl)cc12	3.2	1.436
O=C(O)Cc1c[nH]c2cc(Cl)ccc12	2.41	0.863
O=C(O)Cc1c[nH]c2c(Cl)cccc12	2.32	0.623
O=C(O)Cc1c[nH]c2ccc(OCc3ccccc3)cc12	3.2	
Cc1ccc2[nH]cc(CC(=O)O)c2c1	1.99	0.217
Cc1ccc2c(CC(=O)O)c[nH]c2c1	1.96	0.689
O=C(O)Cc1c[nH]c2ccc(O)cc12	0.74	-0.125
O=C(O)Cc1c[nH]c2cc(F)ccc12	1.74	0.308
O=C(O)Cc1c[nH]c2cc(Cl)cc(Cl)c12	3.29	1.082
COc1ccc2[nH]cc(CC(=O)O)c2c1	1.23	0.185
O=C(O)Cc1c[nH]c2c(Cl)c(Cl)ccc12	3.16	1.09
O=C(O)Cc1c[nH]c2ncccc12	0.45	-0.314
O=C(O)Cc1c[nH]c2ccc(Cl)c(Cl)c12	2.92	0.799
O=C(O)Cc1c[nH]c2ccc(F)cc12	1.72	0.261
CCCCc1ccc2[nH]cc(CC(=O)O)c2c1	3.89	1.05
O=C(O)Cc1c[nH]c2c(Cl)ccc(Cl)c12	3.02	0.84
O=C(O)Cc1c[nH]c2ccc(Cl)cc12	2.38	0.646

Continued, values first:

logP [1]	logKA (Albumin)	SMILES
3.21	0.809	CCCc1ccc2[nH]cc(CC(=O)O)c2c1
2.54	0.49	CCc1ccc2[nH]cc(CC(=O)O)c2c1
2.09	0.031	CCc1[nH]c2ccccc2c1CC(=O)O
2.56	1.044	CCc1ccc2c(CC(=O)O)c[nH]c2c1
1.66	0.305	O=C(O)Cc1c[nH]c2cccc(F)c12
2.14	0.228	COc1ccc2[nH]c(C)c(CC(=O)O)c2c1 [DESCHLOROBENZOYL INDOMETHACIN]
2.33	0.393	CCc1cccc2[nH]cc(CC(=O)O)c12
1.81	0.247	O=C(O)Cc1c[nH]c2c(F)cccc12
1.84	0.155	Cc1cccc2[nH]cc(CC(=O)O)c12
2.13	0.458	O=C(O)Cc1c[nH]c2cccc(Cl)c12
1.87	0.243	Cn1cc(CC(=O)O)c2ccccc21
2.34	0.292	CCOC(=O)Cc1c[nH]c2ccccc12
1.95	0.288	Cc1cccc2c(CC(=O)O)c[nH]c12
2.56	0.15	CCCc1[nH]c2ccccc2c1CC(=O)O
1.42	0.102	O=C(O)Cc1c[nH]c2ccccc12 [INDOLE-3-ACETIC ACID]
1.72	-0.04	Cc1[nH]c2ccccc2c1CC(=O)O
